# Assays:
# [1] = target: T1, Protein mono-ADP-ribosyltransferase TIPARP (Homo sapiens, UniProt Q7Z3E1); experiment: Inhibition of PARP7 (unknown origin) using histone as substrate incubated for 1 hr by chemiluminescence assay
# T1 sequence (Q7Z3E1 whole entry): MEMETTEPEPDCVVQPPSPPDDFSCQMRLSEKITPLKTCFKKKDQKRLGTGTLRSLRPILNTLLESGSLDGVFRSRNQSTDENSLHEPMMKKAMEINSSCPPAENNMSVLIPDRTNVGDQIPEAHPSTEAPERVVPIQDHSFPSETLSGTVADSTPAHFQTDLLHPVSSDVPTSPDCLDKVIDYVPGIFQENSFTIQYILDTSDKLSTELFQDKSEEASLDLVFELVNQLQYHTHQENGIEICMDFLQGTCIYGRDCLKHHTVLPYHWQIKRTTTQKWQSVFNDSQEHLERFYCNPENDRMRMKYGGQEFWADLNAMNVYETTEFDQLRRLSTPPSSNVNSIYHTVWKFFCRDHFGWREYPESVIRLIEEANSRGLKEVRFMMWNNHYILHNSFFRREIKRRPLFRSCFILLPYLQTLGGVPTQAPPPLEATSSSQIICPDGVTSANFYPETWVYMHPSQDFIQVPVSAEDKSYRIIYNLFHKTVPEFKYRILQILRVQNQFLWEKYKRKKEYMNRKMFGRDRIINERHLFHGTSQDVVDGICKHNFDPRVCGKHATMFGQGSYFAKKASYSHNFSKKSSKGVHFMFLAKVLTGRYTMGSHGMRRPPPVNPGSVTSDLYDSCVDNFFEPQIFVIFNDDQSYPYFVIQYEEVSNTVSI
# [2] = target: T2, Protein mono-ADP-ribosyltransferase PARP12 (Homo sapiens, UniProt Q9H0J9); experiment: Inhibition of PARP12 (unknown origin)
# T2 sequence (Q9H0J9 whole entry): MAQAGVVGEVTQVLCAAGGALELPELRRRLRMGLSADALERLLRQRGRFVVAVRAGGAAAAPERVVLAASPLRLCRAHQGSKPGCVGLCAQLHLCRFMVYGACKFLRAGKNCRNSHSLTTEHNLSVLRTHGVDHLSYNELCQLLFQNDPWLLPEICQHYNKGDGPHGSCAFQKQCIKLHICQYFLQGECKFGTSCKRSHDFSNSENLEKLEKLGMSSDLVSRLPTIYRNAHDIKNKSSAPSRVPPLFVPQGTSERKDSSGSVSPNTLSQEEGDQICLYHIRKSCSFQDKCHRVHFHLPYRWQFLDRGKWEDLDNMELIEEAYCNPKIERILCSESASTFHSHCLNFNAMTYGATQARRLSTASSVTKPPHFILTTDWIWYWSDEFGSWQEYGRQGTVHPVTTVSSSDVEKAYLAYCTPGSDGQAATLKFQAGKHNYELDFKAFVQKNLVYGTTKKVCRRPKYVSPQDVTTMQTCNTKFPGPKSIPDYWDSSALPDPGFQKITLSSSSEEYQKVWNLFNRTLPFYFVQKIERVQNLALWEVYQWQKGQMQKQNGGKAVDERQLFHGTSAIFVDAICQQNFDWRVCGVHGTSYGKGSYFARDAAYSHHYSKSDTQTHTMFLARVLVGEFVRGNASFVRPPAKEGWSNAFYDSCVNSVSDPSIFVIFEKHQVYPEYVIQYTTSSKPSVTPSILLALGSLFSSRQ
# [3] = Half life in fasted ICR mouse at 10 mg/kg, po measured for 24 hrs by LC-MS analysis; type: ADME, organism-based; details: in vivo
# [4] = AUC in fasted ICR mouse at 10 mg/kg, po measured for 24 hrs by LC-MS analysis; type: ADME, organism-based; details: in vivo
# [5] = Toxicity in […] SCID mouse model xenografted with human NCI-H1373 cells assessed as animal death at 30 mg/kg, po measured for 21 days; type: organism-based; details: in vivo, 504 h, time 21 day
# [6] = Toxicity in […] SCID mouse model xenografted with human NCI-H1373 cells assessed as body weight loss at 30 mg/kg, po measured for 21 days; type: organism-based; details: in vivo, 504 h, time 21 day
# [7] = AUC in fasted Beagle dog at 10 mg/kg, po measured for 24 hrs by LC-MS analysis; type: ADME, organism-based, Canis lupus familiaris; details: in vivo
# [8] = Apparent permeability across apical to basolateral side in MDCKII-MDR1 cells incubated for 2 hrs by LC-MS analysis; type: ADME, cell-based, Canis lupus familiaris; details: dog, MDCK-MDR1
# [9] = Plasma protein binding in human at 2 uM incubated for 1 hr by LC/MS analysis; type: ADME, cell-free; details: read-out: PPB (converted)
# [10] = Plasma protein binding in mouse at 2 uM incubated for 1 hr by LC/MS analysis; type: ADME, cell-free; details: read-out: PPB (converted)
# [11] = Metabolic stability in monkey liver microsomes assessed as intrinsic clearance preincubated for 5 mins followed by NADPH addition measured for 1 hr by LC-MS analysis; type: ADME, Macaca mulatta, Microsome; details: rhesus monkey, time 65 min, read-out: CLH
# [12] = Metabolic stability in rat liver microsomes assessed as intrinsic clearance preincubated for 5 mins followed by NADPH addition measured for 1 hr by LC-MS analysis; type: ADME, Microsome; details: time 65 min, read-out: CLH
# [13] = target: T3, Cytochrome P450 1A2 (Homo sapiens, UniProt P05177); experiment: Inhibition of CYP1A2 in human liver microsomes using phenacetin as substrate preincubated for 10 mins followed by substrate addition measured for 30 mins by LC-MS analysis; type: ADME, Microsome
# T3 sequence (P05177 whole entry): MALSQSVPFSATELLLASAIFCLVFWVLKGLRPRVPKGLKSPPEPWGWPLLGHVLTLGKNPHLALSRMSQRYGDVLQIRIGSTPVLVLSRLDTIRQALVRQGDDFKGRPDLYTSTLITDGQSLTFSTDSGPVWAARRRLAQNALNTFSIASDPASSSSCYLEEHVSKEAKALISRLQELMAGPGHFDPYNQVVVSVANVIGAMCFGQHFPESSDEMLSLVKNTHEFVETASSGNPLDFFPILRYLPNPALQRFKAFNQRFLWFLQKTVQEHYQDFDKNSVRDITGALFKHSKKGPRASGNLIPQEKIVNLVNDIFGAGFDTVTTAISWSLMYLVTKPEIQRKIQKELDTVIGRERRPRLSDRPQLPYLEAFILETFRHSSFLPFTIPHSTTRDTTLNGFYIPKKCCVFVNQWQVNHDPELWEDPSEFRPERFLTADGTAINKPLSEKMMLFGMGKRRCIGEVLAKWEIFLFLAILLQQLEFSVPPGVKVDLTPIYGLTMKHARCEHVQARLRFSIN
# [14] = target: Cytochrome P450 2C9 (Homo sapiens, UniProt P11712); experiment: Inhibition of CYP2C9 in human liver microsomes using diclofenac as substrate preincubated for 10 mins followed by substrate addition measured for 30 mins by LC-MS analysis; type: ADME, Microsome
# Chain of Cytochrome P450 2C9 (P11712 whole entry): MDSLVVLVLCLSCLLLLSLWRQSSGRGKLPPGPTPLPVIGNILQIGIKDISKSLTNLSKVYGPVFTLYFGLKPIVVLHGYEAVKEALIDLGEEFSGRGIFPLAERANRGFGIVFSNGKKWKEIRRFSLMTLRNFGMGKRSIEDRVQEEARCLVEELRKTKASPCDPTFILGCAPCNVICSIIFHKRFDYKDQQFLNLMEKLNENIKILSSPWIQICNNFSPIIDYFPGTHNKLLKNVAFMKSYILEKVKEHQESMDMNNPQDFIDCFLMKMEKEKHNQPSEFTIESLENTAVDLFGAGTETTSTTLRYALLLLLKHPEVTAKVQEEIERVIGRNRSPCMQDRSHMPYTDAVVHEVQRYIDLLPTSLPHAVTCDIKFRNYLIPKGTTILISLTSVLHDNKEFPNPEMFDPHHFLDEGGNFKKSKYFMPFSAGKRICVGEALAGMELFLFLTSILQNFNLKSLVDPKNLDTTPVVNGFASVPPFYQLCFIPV
# [15] = target: Cytochrome P450 2C19 (Homo sapiens, UniProt P33261); experiment: Inhibition of CYP2C19 in human liver microsomes using mephenytoin as substrate preincubated for 10 mins followed by substrate addition measured for 30 mins by LC-MS analysis; type: ADME, Microsome
# Chain of Cytochrome P450 2C19 (P33261 whole entry): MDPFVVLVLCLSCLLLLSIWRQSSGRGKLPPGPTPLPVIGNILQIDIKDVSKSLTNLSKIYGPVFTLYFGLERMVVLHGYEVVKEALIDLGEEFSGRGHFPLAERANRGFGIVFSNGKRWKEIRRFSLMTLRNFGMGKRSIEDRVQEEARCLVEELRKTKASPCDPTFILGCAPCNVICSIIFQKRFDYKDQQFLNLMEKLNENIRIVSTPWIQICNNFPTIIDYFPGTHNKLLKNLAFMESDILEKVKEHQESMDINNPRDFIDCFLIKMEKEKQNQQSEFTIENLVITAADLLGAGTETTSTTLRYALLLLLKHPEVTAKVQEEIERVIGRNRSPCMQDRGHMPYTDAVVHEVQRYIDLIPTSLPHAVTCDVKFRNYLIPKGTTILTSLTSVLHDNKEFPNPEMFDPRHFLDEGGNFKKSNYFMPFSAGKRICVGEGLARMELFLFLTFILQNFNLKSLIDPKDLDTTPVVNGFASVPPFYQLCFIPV
# [16] = target: Cytochrome P450 3A4 (Homo sapiens, UniProt P08684); experiment: Inhibition of CYP3A4 in human liver microsomes using midazolam as substrate preincubated for 10 mins followed by substrate addition measured for 30 mins by LC-MS analysis; type: ADME, Microsome
# Chain of Cytochrome P450 3A4 (P08684 whole entry): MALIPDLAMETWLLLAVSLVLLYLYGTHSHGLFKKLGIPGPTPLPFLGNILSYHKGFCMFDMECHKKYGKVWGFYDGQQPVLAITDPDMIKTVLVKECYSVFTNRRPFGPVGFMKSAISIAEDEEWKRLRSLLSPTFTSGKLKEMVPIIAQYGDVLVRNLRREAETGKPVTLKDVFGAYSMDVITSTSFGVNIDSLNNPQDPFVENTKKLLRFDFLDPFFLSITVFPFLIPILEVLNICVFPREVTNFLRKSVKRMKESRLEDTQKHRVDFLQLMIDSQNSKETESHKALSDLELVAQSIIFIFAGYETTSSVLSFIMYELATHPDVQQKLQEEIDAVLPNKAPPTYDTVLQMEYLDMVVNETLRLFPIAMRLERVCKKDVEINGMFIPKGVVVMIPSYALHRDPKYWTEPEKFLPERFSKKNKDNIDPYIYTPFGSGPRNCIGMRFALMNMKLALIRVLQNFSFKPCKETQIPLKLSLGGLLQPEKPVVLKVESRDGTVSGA
smiles,measurement,setting,value
O=C(CCOC[C@@H]1CCN1c1cn[nH]c(=O)c1C(F)(F)F)N1CCN2c3ncc(C(F)(F)F)cc3OC[C@@H]2C1,IC50,[1],0.56 nM
same,IC50,[2],360 nM
same,t1/2,[3],3.7 h
same,AUC,[4],1146 ng·h/mL
same,Activity,[5],Non-Toxic
same,Activity,[6],Non-Toxic
same,AUC,[7],7860 ng·h/mL
same,Papp A→B at 2 h,[8],0.202 ×10⁻⁶ cm/s
same,"fraction unbound at 1 h, 2 µM",[9],0.002
same,"fraction unbound at 1 h, 2 µM",[10],0.019
same,CLint scaled,[11],79.2 mL/min/kg
same,CLint scaled,[12],88.8 mL/min/kg
same,IC50,[13],> 30000 nM
same,IC50,[14],2010 nM
same,IC50,[15],7550 nM
same,IC50,[16],> 30000 nM

# From ChEMBL document CHEMBL5634130, “Exploring the structural-activity relationship of hexahydropyrazino[1,2-d]pyrido[3,2-b][1,4]oxazine derivatives as potent and orally-bioavailable PARP7 inhibitors” (Eur J Med Chem, 2023)
